Data: patent US20190375708A1 (VenatoRx Pharmaceuticals, Inc., priority 2018, published 2019)

Tests used:
[1] = In vitro cytotoxicity assay (MTT cell viability) in HepG2 cells; assay type: cell-based, human; details: human
Summary of the method: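 Using MTT conversion as the viability measure, HepG2 cells were incubated with compounds for 7 days (30 μM to 1.0 nM). Absorbance at 492 nm was normalized to vehicle and fitted to give CC50.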

[2] = test system: HBV replication in HepAD38 cells; experiment: Anti-HBV replication assay in HepAD38 cells (QPCR of extracellular HBV DNA); assay type: cell-based, HBV (genotype D, serotype ayw); details: Hepatitis B virus, 168 h, 7 days incubation, extracellular HBV DNA by QPCR, read-out: Anti-HBV EC50
Summary of the method: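 Compounds (1 log10 serial dilutions, […]) were left 7 days on tetracycline-free HepAD38 cultures, a HepG2 line with tet-controlled HBV genotype D. EC50 came from 4-parameter regression of percent inhibition versus vehicle, using supernatant HBV DNA copies/mL measured by QPCR.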

`Cc1cc(NC(=O)c2c(C)c(C(=O)C(=O)NC3(C)CCN(S(C)(=O)=O)CC3)n(C)c2C)ccc1F` [Example 613, N-(4-fluoro-3-methylphenyl)-1,2,4-trimethyl-5-(2-((4-methyl-1-(methylsulfonyl)piperidin-4-yl)amino)-2-oxoacetyl)-1H-pyrrole-3-carboxamide] showed a CC50 at 7 days [1] greater than 30000 nM and an EC50 [2] of less than 50 nM.
Compound `Cc1c(C(=O)Nc2ccc(F)c(Cl)c2)c2n(c1C(=O)C(=O)NCC(C)(C)O)CCCC2` [Example 467, N-(3-chloro-4-fluorophenyl)-3-(2-((2-hydroxy-2-methylpropyl)amino)-2-oxoacetyl)-2-methyl-5,6,7,8-tetrahydroindolizine-1-carboxamide] has a CC50 at 7 days [1] greater than 30000 nM and an EC50 [2] of 500 to 1000 nM.
`COc1c(C(=O)Nc2ccc(F)c(F)c2)c(C)n(C)c1C(=O)C(=O)NC1(C(F)(F)F)CC1` [Example 377, N-(3,4-difluorophenyl)-4-methoxy-1,2-dimethyl-5-(2-oxo-2-((1-(trifluoromethyl)cyclopropyl)amino)acetyl)-1H-pyrrole-3-carboxamide] showed a CC50 at 7 days [1] greater than 30000 nM and an EC50 [2] of less than 50 nM.
With `Cc1cc(NC(=O)c2c(C)c(C(=O)C(=O)NC3(CO)CC3)n(C)c2C)ccc1F` [Example 7, N-(4-fluoro-3-methylphenyl)-5-(2-((1-(hydroxymethyl)cyclopropyl)amino)-2-oxoacetyl)-1,2,4-trimethyl-1H-pyrrole-3-carboxamide] the CC50 at 7 days [1] was greater than 30000 nM and the EC50 [2] was less than 50 nM.
For `CC[C@@H](CO)NC(=O)C(=O)c1c(C)c(C(=O)Nc2ccc(F)c(C)c2)c(C)n1CCF` [Example 180, (S)-N-(4-fluoro-3-methylphenyl)-1(2-fluoroethyl)-5-(2-((1-hydroxybutan-2-yl)amino)-2-oxoacetyl)-2,4-dimethyl-1H-pyrrole-3-carboxamide], the CC50 at 7 days [1] was 5000 to 30000 nM and the EC50 [2] was less than 50 nM.
For `CC(=O)N1CCn2c(C(=O)C(=O)NC(C)(C)C)cc(C(=O)Nc3ccc(F)c(C)c3)c2C1` [Example 590, 2-acetyl-6-(2-(tert-butylamino)-2-oxoacetyl)-N-(4-fluoro-3-methylphenyl)-1,2,3,4-tetrahydropyrrolo[1,2-a]pyrazine-8-carboxamide], the CC50 at 7 days [1] was greater than 30000 nM and the EC50 [2] was 500 to 1000 nM.
Work on `O=C(NC1(CO)CCC1)C(=O)c1c(Cl)c(C(=O)Nc2ccc(F)c(Cl)c2)c2n1CCC2` [Example 565, 6-chloro-N-(3-chloro-4-fluorophenyl)-5-(2-((1-(hydroxymethyl)cyclobutyl)amino)-2-oxoacetyl)-2,3-dihydro-1H-pyrrolizine-7-carboxamide] yielded a CC50 at 7 days [1] of 5000 to 30000 nM and an EC50 [2] of less than 50 nM.
With `Cc1nnc(CCNC(=O)C(=O)c2c(C)c(C(=O)Nc3ccc(F)c(C)c3)c(C)n2C)s1` [Example 356] the CC50 at 7 days [1] was greater than 30000 nM and the EC50 [2] was less than 50 nM.
In the case of `Cc1noc(C(NC(=O)C(=O)c2c(C)c(C(=O)Nc3ccc(F)c(C)c3)c(C)n2C)C(C)C)n1` (stereo not drawn) [Example 81, N-(4-fluoro-3-methylphenyl)-1,2,4-trimethyl-5-(2-((2-methyl-1-(3-methyl-1,2,4-oxadiazol-5-yl)propyl)amino)-2-oxoacetyl)-1H-pyrrole-3-carboxamide], the CC50 at 7 days [1] is reported as greater than 30000 nM and the EC50 [2] is reported as less than 50 nM.
With `Cc1csc(NC(=O)C(=O)c2c(C)c(C(=O)Nc3ccc(F)c(Cl)c3)c(C)n2C)n1` [Example 316, N-(3-chloro-4-fluorophenyl)-1,2,4-trimethyl-5-(2-((4-methylthiazol-2-yl)amino)-2-oxoacetyl)-1H-pyrrole-3-carboxamide] the CC50 at 7 days [1] was greater than 30000 nM and the EC50 [2] was less than 50 nM.
For `Cc1cc(NC(=O)c2c(C)c(C(=O)C(=O)N[C@H]3CCC[C@@H]3O)n(C)c2C)cnc1F` [Example 131, N-(6-fluoro-5-methylpyridin-3-yl)-5-(2-(((1S,2S)-2-hydroxycyclopentyl)amino)-2-oxoacetyl)-1,2,4-trimethyl-1H-pyrrole-3-carboxamide], the CC50 at 7 days [1] was greater than 30000 nM and the EC50 [2] was 50 to 499 nM.
In the case of `Cc1cc(NC(=O)c2c(C)c(C(=O)C(=O)NC3(c4noc(C5CC5)n4)CCCC3)n(C)c2C)ccc1F` [Example 637, 5-(2-((1-(5-cyclopropyl-1,2,4-oxadiazol-3-yl)cyclopentyl)amino)-2-oxoacetyl)-N-(4-fluoro-3-methylphenyl)-1,2,4-trimetthyl-1H-pyrrole-3-carboxamide], the CC50 at 7 days [1] is reported as greater than 30000 nM and the EC50 [2] is reported as less than 50 nM.
Compound `Cc1nnc(C(C)NC(=O)C(=O)c2c(C)c(C(=O)Nc3ccc(F)c(C)c3)c(C)n2C)o1` (stereo not drawn) [Example 181, N-(4-fluoro-3-methylphenyl)-1,2,4-trimethyl-5-(2-((1-(5-methyl-1,3,4-oxadiazol-2-yl)ethyl)amino)-2-oxoacetyl)-1H-pyrrole-3-carboxamide] has a CC50 at 7 days [1] greater than 30000 nM and an EC50 [2] of less than 50 nM.
For `Cc1cc(NC(=O)c2c(C)c(C(=O)C(=O)NC(C)(C)C(N)=O)n(C)c2C)ccc1F` [Example 36, 5-(2-((1-amino-2-methyl-1-oxopropan-2-yl)amino)-2-oxoacetyl)-N-(4-fluoro-3-methylphenyl)-1,2,4-trimethyl-1H-pyrrole-3-carboxamide], the CC50 at 7 days [1] was greater than 30000 nM and the EC50 [2] was less than 50 nM.
`Cc1c(C(=O)Nc2nccs2)c2n(c1C(=O)C(=O)NC(C)(C)CO)CCCC2` [Example 759, 3-(2-((1-hydroxy-2-methylpropan-2-yl)amino)-2-oxoacetyl)-2-methyl-N-(thiazol-2-yl)-5,6,7,8-tetrahydroindolizine-1-carboxamide] gave a CC50 at 7 days [1] greater than 30000 nM and an EC50 [2] of 50 to 499 nM.
`Cc1cc(NC(=O)c2c(C)c(C(=O)C(=O)NC(C)(C)C)n(C)c2C)cnc1F` [Example 112, 5-(2-(tert-butylamino)-2-oxoacetyl)-N-(6-fluoro-5-methylpyridin-3-yl)-1,2,4-trimethyl-1H-pyrrole-3-carboxamide] gave a CC50 at 7 days [1] greater than 30000 nM and an EC50 [2] of 50 to 499 nM.
With `COc1c(C(=O)Nc2ccc(F)c(F)c2)c(C)n(C)c1C(=O)C(=O)NC(C)(C)C` [Example 380] the CC50 at 7 days [1] was greater than 30000 nM and the EC50 [2] was less than 50 nM.
With `Cc1cc(NC(=O)c2cc(C(=O)C(=O)NC(C)(C)C)n3c2CN(S(C)(=O)=O)CC3)ccc1F` [Example 589, 6-(2-(tert-butylamino)-2-oxoacetyl)-N-(4-fluoro-3-methylphenyl)-2-(methylsulfonyl)-1,2,3,4-tetrahydropyrrolo[1,2-a]pyrazine-8-carboxamide] the CC50 at 7 days [1] was greater than 30000 nM and the EC50 [2] was 500 to 1000 nM.
In the case of `O=C(N[C@H]1COC[C@@H]1O)C(=O)c1c(Cl)c(C(=O)Nc2ccc(F)c(F)c2)c2n1CCCC2` [Example 518, 2-chloro-N-(3,4-difluorophenyl)-3-(2-(((3S,4R)-4-hydroxytetrahydrofuran-3-yl)amino)-2-oxoacetyl)-5,6,7,8-tetrahdyroindolinzie-1-carboxamide], the CC50 at 7 days [1] is reported as 5000 to 30000 nM and the EC50 [2] is reported as 50 to 499 nM.
With `Cc1cc(NC(=O)c2c(C)c(C(=O)C(=O)N[C@@H]3CCC[C@@H]3O)n(C)c2C)ccc1F` [Example 146, N-(4-fluoro-3-methylphenyl)-5-(2-(((1R,2S)-2-hydroxxycyclopentyl)amino)-2-oxoacetyl)-1,2,4-trimethyl-1H-pyrrole-3-carboxamide] the CC50 at 7 days [1] was greater than 30000 nM and the EC50 [2] was less than 50 nM.
Compound `Cc1cc(NC(=O)c2c(C)c(C(=O)C(=O)Nc3cccnc3)n(C)c2C)ccc1F` [Example 204, N-(4-fluoro-3-methylphenyl)-1,2,4-trimethyl-5-(2-oxo-2-(pyridin-3-ylamino)acetyl)-1H-pyrrole-3-carboxamide] has a CC50 at 7 days [1] greater than 30000 nM and an EC50 [2] of less than 50 nM.
`O=C(NC1(CO)CC(F)(F)C1)C(=O)c1c(Cl)c(C(=O)Nc2ccc(F)c(F)c2)c2n1CCC2` [Example 581, 6-chloro-5-(2-((3,3-difluoro-1-(hydroxymethyl)cyclobutyl)amino)-2-oxoacetyl)-N-(3,4-difluorophenyl)-2,3-dihydro-1H-pyrrolizine-7-carboxamide] showed a CC50 at 7 days [1] of 5000 to 30000 nM and an EC50 [2] of less than 50 nM.
For `Cc1cc(NC(=O)c2c(C)c(C(=O)C(=O)Nc3ccn(C)n3)n(C)c2C)ccc1F` [Example 306, N-(4-fluoro-3-methylphenyl)-1,2,4-trimethyl-5-(2-((1-methyl-1H-pyrazol-3-yl)amino)-2-oxoacetyl)-1H-pyrrole-3-carboxamide], the CC50 at 7 days [1] was greater than 30000 nM and the EC50 [2] was less than 50 nM.
With `O=C(N[C@H]1CCC[C@H]1O)C(=O)c1c(Cl)c(C(=O)Nc2ccc(F)c(Cl)c2)c2n1CCC2` [Example 564, 6-chloro-N-(3-chloro-4-fluorophenyl)-5--(2-(((1S,2R)-2-hydroxycyclopentyl)amino)-2-oxoacetyl)-2,3-dihydro-1H-pyrrolizine-7-carboxamide] the CC50 at 7 days [1] was 5000 to 30000 nM and the EC50 [2] was less than 50 nM.
`Cc1c(C(=O)Nc2ccnc(Cl)c2)c(C)n(C)c1C(=O)C(=O)NC1C2CC3CC1CC(O)(C3)C2` [Example 209, N-(2-chloropyridin-4-yl)-5-(2-(((1R,2s,3S,5s,7s)-5-hydroxyadamantan-2-yl)amino)-2-oxoacetyl)-1,2,4-trimethyl-1H-pyrrole-3-carboxamide] showed a CC50 at 7 days [1] greater than 30000 nM and an EC50 [2] of less than 50 nM.
For `Cc1c(C(=O)Nc2ccnc(F)c2)c(C)n(C)c1C(=O)C(=O)NC1(C(F)(F)F)CCOCC1` [Example 271, N-(2-fluoropyridin-4-yl)-1,2,4-trimethyl-5-(2-oxo-2-((4-(trifluoromethyl)tetrahydro-2H-pyran-4-yl)amino)acetyl)-1H-pyrrole-3-carboxamide], the CC50 at 7 days [1] was greater than 30000 nM and the EC50 [2] was less than 50 nM.
With `Cc1c(C(=O)Nc2ccc(F)c(F)c2)c2n(c1C(=O)C(=O)NC1(CO)CCC1)CCCC2` [Example 460, N-(3,4-difluorophenyl)-3-(2-((1-(hydroxymethyl)cyclobutyl)amino)-2-oxoacetyl)-2-methyl-5,6,7,8-tetrahydroindoline-1-carboxamide] the CC50 at 7 days [1] was 5000 to 30000 nM and the EC50 [2] was less than 50 nM.
